Values of other authors as cited in US10022348B2, “Topical solution of isotretinoin” (SUN PHARMACEUTICAL INDUSTRIES LIMITED, priority 2009, dated 2018).

Tested on: patients with severe acne
Conditions: oral

CC1=C(/C=C/C(C)=C/C=C/C(C)=C\C(=O)O)C(C)(C)CCC1 [isotretinoin, 13-cis retinoic acid]
long-term remission: about 80 % of patients
